The source made the active and inactive calls.
Assays:
[1] = inhibitors of firefly luciferase expression or activity, dose response, H4 neuroglioma cells, luminescence (AID 1990); type: functional, cell-based
[2] = MDA-MB-231 cell growth inhibition, dose response, cytotoxicity control for RAD54 inhibitor project, CellTiter-Glo luminescence, cherry-pick (AID 651692); type: functional, cell-based
[3] = target: T1, DNA repair and recombination protein RAD54-like (Homo sapiens, UniProt Q92698); test: inhibitors of human RAD54 branch migration, confirmation, biochemical, fluorescence, cherry-picked samples, dose series (AID 651657); type: functional
T1 sequence (Q92698 whole entry): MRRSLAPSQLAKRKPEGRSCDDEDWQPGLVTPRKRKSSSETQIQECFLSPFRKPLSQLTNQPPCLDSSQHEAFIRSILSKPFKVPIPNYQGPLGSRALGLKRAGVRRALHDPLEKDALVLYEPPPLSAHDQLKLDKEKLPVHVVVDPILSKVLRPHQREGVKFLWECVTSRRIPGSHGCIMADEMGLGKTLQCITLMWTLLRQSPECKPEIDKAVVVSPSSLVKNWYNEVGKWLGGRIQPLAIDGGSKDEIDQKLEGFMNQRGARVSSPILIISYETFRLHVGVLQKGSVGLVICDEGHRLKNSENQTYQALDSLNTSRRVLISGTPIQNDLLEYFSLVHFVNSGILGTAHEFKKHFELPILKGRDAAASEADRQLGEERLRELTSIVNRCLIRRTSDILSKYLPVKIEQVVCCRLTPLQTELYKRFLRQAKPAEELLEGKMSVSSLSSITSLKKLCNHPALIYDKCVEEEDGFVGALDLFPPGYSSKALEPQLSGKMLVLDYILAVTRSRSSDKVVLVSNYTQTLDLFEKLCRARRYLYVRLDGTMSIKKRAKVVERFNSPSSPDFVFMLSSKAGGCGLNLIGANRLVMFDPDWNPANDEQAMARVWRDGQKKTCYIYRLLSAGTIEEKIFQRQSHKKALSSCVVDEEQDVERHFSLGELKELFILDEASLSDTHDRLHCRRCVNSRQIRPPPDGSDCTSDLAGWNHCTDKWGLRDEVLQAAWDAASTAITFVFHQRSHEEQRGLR

BJ [4] = test: cells; type: functional, cell-based; conditions: Homo sapiens
BJ [5] = test: cytotoxicity toward BJ-TERT fibroblasts, dose response, cell-based, RAS-independent, luminescence (AID 1933); type: functional; conditions: Homo sapiens
[6] = target: T2, Heat shock factor protein 1 (Mus musculus, UniProt P38532); test: inhibition of MG132-induced HSE-luciferase signal, confirmation, cell-based, NIH3T3, luminescence, dose retest (AID 2382); type: functional;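 note: NIH3T3 fibroblasts with HSF1-driven luciferase reporter stressed by proteasome inhibitor MG132; luminescence from HSF1-driven luciferase expression after 8 hours of MG132 stress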
T2 sequence (P38532 whole entry): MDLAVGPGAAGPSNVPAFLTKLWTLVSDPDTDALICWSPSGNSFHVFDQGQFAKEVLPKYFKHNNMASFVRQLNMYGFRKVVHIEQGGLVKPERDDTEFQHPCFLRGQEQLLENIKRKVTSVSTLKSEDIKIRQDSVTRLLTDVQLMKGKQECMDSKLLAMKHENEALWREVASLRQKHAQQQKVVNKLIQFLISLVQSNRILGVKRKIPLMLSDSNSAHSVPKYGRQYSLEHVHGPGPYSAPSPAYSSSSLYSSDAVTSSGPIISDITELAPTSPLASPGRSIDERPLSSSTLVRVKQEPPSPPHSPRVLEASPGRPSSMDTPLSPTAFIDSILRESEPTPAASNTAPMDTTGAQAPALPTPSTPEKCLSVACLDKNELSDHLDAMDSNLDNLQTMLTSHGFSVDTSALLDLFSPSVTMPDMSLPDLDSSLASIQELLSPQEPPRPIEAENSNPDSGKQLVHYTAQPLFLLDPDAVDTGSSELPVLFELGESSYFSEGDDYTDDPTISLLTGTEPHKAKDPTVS

[7] = target: T3, Ubiquitin-conjugating enzyme E2 N (Homo sapiens, UniProt P61088); type: functional;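 note: Dose-response confirmation in a TR-FRET assay detecting UBC13-driven polyubiquitin chain formation, inhibition measured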
T3 sequence (P61088 whole entry): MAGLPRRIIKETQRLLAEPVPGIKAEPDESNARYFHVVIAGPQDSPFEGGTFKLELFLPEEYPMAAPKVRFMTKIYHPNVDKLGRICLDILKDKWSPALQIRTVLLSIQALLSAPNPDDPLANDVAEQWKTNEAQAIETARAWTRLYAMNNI

[8] = target: G-protein coupled receptor 55 (Homo sapiens, UniProt Q9Y2T6); test: GPR55 antagonists blocking LPI-driven arrestin recruitment, primary screen, imaging, U2OS, beta-arrestin-GFP, LPI agonist (AID 2013); type: functional;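 note: antagonist potency measured as reduced agonist-driven arrestin aggregation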
G-protein coupled receptor 55, sequence (Q9Y2T6 whole entry): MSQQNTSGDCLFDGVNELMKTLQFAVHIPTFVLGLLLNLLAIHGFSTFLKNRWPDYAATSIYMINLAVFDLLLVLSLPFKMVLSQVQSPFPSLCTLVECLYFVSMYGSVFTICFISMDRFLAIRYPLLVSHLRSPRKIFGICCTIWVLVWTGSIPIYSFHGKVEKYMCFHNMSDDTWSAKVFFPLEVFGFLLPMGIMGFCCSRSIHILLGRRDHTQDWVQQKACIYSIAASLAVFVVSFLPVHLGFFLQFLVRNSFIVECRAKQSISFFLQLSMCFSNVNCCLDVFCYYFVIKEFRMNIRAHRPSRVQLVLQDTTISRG

BJ [9] = test: cytotoxicity toward Ras-transformed BJeLR fibroblasts, dose response, cell-based, alamar blue fluorescence, cherrypicked samples (AID 2631); type: functional; conditions: Homo sapiens;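 note: confirmatory dose-response assay in RAS-dependent BJ fibroblasts engineered with TERT, LT and ST, with cytotoxicity read by fluorescence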
[10] = inhibitors of SNCA 5'UTR-driven reporter translation, confirmation, H4 neuroglioma cells, luminescence (AID 1988); type: functional, cell-based
BJ [11] = test: cytotoxicity toward BJ-TERT-LT-ST fibroblasts, dose response, cell-based, RAS-independent, luminescence (AID 1935); type: functional; conditions: Homo sapiens;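 note: BJ fibroblasts immortalized with TERT plus LT and ST oncogenes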
[12] = target: DNA repair protein RAD52 homolog (Homo sapiens, UniProt P43351); type: functional, biochemical
DNA repair protein RAD52 homolog, sequence (P43351 whole entry): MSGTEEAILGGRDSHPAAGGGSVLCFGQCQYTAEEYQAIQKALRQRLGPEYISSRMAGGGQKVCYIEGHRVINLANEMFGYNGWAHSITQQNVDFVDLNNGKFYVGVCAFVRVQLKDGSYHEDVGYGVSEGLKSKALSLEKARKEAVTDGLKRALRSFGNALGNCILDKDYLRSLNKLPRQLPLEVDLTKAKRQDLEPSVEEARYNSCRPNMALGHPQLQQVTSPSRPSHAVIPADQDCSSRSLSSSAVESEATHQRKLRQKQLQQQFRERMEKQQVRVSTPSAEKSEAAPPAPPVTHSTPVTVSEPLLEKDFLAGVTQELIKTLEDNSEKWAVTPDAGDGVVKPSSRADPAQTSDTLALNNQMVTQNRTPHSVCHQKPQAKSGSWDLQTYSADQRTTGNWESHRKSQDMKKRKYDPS

Paired box protein Pax-8 = Paired box protein Pax-8 (Homo sapiens, UniProt Q06710); test: inhibitors of PAX8-driven TPO luciferase reporter, dose response, RMG-I cells, cherry-pick (AID 687027); type: functional, cell-based;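 note: luciferase reporter driven by Pax8 target thyroperoxidase promoter measured by SteadyGlo luminescence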
Paired box protein Pax-8, sequence (Q06710 whole entry): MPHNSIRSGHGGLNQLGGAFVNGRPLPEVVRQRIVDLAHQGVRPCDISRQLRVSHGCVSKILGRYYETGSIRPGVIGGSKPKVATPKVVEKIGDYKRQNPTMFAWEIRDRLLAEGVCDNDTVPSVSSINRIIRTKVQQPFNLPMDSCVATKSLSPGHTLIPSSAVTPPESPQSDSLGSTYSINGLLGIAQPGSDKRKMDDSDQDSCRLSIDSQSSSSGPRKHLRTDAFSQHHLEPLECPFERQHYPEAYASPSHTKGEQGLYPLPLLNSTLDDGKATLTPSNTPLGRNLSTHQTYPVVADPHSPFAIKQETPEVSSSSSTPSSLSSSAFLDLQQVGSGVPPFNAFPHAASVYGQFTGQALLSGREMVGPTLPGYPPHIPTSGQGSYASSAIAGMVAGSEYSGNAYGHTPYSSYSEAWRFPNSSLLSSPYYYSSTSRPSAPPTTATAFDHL

[13] = non-specific cell cytotoxicity, dose response, cytotoxicity control for PAX8 inhibitor project, plate reader, dry powder samples (AID 743021); type: functional, cell-based
[14] = cytotoxicity toward DRD oncogenic fibroblasts, dose response, cell-based, non-viral oncogenic, luminescence (AID 1934); type: functional; conditions: Homo sapiens
[15] = target: T4, Low molecular weight phosphotyrosine protein phosphatase (Homo sapiens, UniProt P24666); type: functional; conditions: read-out: IC50_Mean
T4 sequence (P24666 whole entry): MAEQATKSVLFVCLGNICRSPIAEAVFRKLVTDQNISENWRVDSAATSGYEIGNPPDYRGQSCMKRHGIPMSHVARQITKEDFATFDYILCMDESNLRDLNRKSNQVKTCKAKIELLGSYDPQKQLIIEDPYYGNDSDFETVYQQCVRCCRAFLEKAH

[16] = target: T4, Low molecular weight phosphotyrosine protein phosphatase; type: functional; conditions: read-out: IC50_Mean; remark: listed apart in the source
[17] = miR-122 activators in hepatoma reporter cells, dose response, cell-based, Huh7 psiCHECK-miR122, Renilla luciferase, cherry-picked (AID 651956); type: functional;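 note: huh7 hepatoma cells stably carrying a psiCHECK-2 miR-122 sensor plasmid; renilla luciferase signal reporting endogenous miR-122 activity after 48 h compound exposure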
[18] = target: T5, Sentrin-specific protease 1 (Homo sapiens, UniProt Q9P0U3); test: potency of human SENP1 inhibitors, dose response, biochemical, kinetic FRET (AID 651697); type: functional; conditions: read-out: IC50_Mean
T5 sequence (Q9P0U3 whole entry, the tested form may be a part): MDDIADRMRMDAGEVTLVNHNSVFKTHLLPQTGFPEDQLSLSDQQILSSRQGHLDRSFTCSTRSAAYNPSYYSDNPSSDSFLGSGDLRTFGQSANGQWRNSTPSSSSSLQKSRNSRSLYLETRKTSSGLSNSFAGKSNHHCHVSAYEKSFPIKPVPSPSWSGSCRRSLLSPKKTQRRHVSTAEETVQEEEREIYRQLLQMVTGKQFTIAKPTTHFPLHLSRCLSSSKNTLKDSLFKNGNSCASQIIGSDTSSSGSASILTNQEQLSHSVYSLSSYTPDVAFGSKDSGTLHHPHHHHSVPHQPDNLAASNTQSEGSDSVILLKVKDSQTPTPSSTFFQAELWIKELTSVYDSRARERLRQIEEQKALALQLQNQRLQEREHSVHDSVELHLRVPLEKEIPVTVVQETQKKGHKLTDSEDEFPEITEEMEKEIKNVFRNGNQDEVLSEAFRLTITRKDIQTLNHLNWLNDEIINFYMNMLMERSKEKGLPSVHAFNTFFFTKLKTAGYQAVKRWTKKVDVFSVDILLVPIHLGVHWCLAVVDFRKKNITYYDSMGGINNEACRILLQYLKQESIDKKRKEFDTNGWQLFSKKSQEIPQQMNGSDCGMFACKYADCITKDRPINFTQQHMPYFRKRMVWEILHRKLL

[19] = target: T5, Sentrin-specific protease 1; test: Dose response confirmation of small molecule inhibitors of the catalytic domain of the SUMO protease, SENP1 in a FRET assay.; type: functional; conditions: read-out: IC50_Mean
[20] = target: T6, Endoribonuclease toxin MazF (Escherichia coli K-12, UniProt P0AE70); test: MazF toxin RNase activators, dose response, biochemical, fluorescence, single-stranded RNA substrate, uHTS hits (AID 588481); type: functional
T6 sequence (P0AE70 whole entry): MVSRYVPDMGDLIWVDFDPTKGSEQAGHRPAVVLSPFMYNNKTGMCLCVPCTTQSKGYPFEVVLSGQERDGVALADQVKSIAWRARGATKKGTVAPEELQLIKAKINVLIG

[21] = target: T6, Endoribonuclease toxin MazF; test: fluorescent RNA oligo signal without MazF, dose response, counter-screen for MazEF activator project, biochemical, fluorescence, single-stranded RNase substrate (AID 588502); type: functional
Beta-lactamase [22] = target: Beta-lactamase (Salmonella choleraesuis (strain SC-B67), UniProt Q5J463)
Beta-lactamase (Salmonella choleraesuis (strain SC-B67), UniProt Q5J463), sequence (Q5J463 whole entry): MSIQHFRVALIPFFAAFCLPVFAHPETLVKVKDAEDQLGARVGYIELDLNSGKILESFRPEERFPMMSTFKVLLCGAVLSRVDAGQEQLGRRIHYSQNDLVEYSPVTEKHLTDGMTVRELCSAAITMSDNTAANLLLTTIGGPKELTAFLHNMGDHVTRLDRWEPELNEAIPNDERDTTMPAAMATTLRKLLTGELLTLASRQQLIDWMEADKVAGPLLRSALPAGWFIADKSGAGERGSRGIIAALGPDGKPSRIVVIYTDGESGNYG

Beta-lactamase [23] = target: Beta-lactamase (Pseudomonas aeruginosa, UniProt Q79MP6);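 note: biochemical dose-response test of metallo-beta-lactamase enzyme inhibition, read out by epi-absorbance; purified recombinant IMP-1 metallo-beta-lactamase with nitrocefin as substrate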
Beta-lactamase (Pseudomonas aeruginosa, UniProt Q79MP6), sequence (Q79MP6 whole entry): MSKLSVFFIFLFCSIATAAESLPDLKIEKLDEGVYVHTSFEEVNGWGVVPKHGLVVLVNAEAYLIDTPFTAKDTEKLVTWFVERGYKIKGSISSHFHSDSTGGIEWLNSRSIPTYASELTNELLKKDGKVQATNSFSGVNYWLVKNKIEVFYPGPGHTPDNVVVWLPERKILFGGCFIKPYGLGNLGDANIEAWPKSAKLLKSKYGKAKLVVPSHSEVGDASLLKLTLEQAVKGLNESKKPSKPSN

[24] = target: T7, Heat shock protein HSP 90-alpha (Homo sapiens, UniProt P07900); test: Luminescence-based dose response biochemical high throughput screening assay for inhibitors of the Heat Shock Protein 90 (HSP90). [Related pubchem assays: 1831 (Summary AID.), 1846 (Confirmation screen.), 1789 (Primary screen.)]
[25] = Fluorescence-based cell-based high throughput dose response assay for inhibitors of the interaction of nucleotide-binding oligomerization domain containing 2 (NOD2) and the receptor-interacting serine-threonine kinase 2 (RIPK2).; type: functional; conditions: Homo sapiens
Streptokinase A = target: T8, Streptokinase A (Streptococcus pyogenes serotype M1, UniProt P10520); test: S. pyogenes streptokinase expression inhibitors, potency, dose response, plasminogen activation absorbance, OD405 (AID 1914); type: functional, Streptococcus pyogenes M1 GAS;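 note: secreted streptokinase activity via plasminogen activation per viability signal from cell pellet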
T8 sequence (P10520 whole entry): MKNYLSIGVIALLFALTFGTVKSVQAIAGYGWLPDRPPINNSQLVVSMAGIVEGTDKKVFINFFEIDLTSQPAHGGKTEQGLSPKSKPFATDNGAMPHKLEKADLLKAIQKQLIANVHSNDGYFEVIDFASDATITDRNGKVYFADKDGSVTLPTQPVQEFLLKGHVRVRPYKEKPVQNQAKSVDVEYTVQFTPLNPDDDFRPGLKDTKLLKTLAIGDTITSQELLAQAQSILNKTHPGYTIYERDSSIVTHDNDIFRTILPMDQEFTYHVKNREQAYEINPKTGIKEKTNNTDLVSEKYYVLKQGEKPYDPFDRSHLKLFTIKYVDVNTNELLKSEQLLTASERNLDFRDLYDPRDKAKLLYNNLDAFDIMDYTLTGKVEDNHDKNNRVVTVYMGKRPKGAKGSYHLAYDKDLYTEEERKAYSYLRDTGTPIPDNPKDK

[26] = target: T2, Heat shock factor protein 1; test: HSF1 potentiators in luciferase reporter cells, confirmation, cell-based, NIH3T3, luminescence, dose retest (AID 435004); type: functional;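 note: stress induced by proteasome inhibitor MG132 added 30 min after compound; luciferase reporter driven by HSF1 response element in NIH3T3 cells; actives raise luminescence as potentiators of the MG132 stress response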
Beta Lactamase = Beta Lactamase (Pseudomonas aeruginosa, UniProt Q932Y6); test: beta-lactamase reporter inhibitor potency, dose response, artefact control for NOD2-RIPK2 interaction inhibitor project, BLA reporter cells, FRET fluorescence (AID 651552); type: functional, cell-based
Beta Lactamase, sequence (Q932Y6 whole entry): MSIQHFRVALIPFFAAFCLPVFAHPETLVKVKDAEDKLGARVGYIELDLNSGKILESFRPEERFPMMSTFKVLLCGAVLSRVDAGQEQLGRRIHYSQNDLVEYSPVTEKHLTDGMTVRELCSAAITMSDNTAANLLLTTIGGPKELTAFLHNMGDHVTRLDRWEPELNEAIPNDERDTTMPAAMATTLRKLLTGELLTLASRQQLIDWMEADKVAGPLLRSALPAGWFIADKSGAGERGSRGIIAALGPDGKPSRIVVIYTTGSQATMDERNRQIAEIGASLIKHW

[27] = HeLa cell cytotoxicity, dose response, cytotoxicity control for MgcRacGAP inhibitor project (AID 624300); type: functional
[28] = target: T9, Rac GTPase-activating protein 1 (Homo sapiens, UniProt Q9H0H5); test: MgcRacGAP GTPase-activating activity inhibitors, confirmation, biochemical, ADP Hunter fluorescence, primary and confirmatory (AID 624330); type: functional
T9 sequence (Q9H0H5 whole entry): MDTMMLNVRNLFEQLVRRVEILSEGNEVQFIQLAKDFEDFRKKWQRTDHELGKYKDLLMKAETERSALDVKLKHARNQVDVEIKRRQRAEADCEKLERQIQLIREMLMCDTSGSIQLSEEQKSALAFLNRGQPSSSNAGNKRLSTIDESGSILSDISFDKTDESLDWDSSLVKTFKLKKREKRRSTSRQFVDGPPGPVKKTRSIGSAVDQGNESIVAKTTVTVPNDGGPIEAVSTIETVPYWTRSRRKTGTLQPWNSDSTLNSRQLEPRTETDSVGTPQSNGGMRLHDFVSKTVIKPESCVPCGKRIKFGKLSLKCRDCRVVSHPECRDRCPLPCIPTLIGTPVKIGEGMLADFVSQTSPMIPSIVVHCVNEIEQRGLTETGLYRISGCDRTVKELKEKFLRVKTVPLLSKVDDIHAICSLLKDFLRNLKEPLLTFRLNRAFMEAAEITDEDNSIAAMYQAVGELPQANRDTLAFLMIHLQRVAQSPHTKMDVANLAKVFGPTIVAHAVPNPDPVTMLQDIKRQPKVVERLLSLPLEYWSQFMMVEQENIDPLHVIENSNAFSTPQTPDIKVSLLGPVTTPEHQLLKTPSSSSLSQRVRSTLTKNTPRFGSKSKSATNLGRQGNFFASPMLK

[29] = test system: Streptococcus sp. 'group A'; test: growth inhibition of control SK(-) GAS strain, dose response, counter-screen for streptokinase expression inhibitor project, luminescence, kanamycin, BacTiterGlo, confirmation (AID 1900); type: functional, organism-based
INS1 = test: beta cell apoptosis inhibitors, cytokine rescue, dose response, luminescence, retest (AID 449756); type: functional, cell-based; conditions: Rattus norvegicus;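 note: cell death triggered by IL-1 beta plus TNF-alpha plus IFN-gamma mixture; protective hits raise ATP signal compared with cytokine alone wells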
[30] = target: T7, Heat shock protein HSP 90-alpha; type: functional, organism-based
Streptococcus = test: Group A Streptococcus viability loss, dose response, counter-screen for streptokinase expression inhibitor project, luminescence, BacTiterGlo (AID 1915); type: functional, organism-based;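 note: potency for reduction of bacterial viability or growth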

## CN(C)CCNC(=O)c1cc2c(s1)-c1ccc(Cl)cc1SC2
[1]
  EC50: > 120 µM (not active)
[2]
  AC50: 11 µM (active)
[3]
  AC50: 60.8 µM (active)
BJ [4]
  EC50: 5.2 µM (inconclusive)
BJ [5]
  EC50: 4.54 µM (active)
[6]
  EC50: 13.5 µM (active)
[7]
  IC50: > 20 µM (inactive)
[8]
  IC50: 6.25 µM (active)
BJ [9]
  EC50: 2.18 µM (active)
[10]
  EC50: 9.06 µM (active)
BJ [11]
  EC50: 5.57 µM (inconclusive)
[12]
  AC50: 8.31 µM (active)
Paired box protein Pax-8
  AC50: 9.29 µM (active)
[13]
  AC50: 29.3 µM (active)
[14]
  EC50: 5.06 µM (active)

## CC(=O)Nc1ccc(CNc2nc(NCC3CC3)nc3ccsc23)cc1
[15]
  IC50: 17 µM (active)
[16]
  IC50: 12.6 µM (active)

## CN1C(=O)c2cc(NC(=O)c3cccc(C(F)(F)F)c3)ccc2OC[C@H]2O[C@H](CC(=O)NCCN3CCCC3)CC[C@H]21
[17]
  AC50: 38.9 µM (active)

## O=C1C=C(c2cccc(Cl)c2O)C[C@@H](c2ccc3c(c2)OCO3)C1
[18]
  IC50: 1.93 µM (active)
[19]
  IC50: 0.993 µM (active)

## CCOc1cc2c(cc1/C=C/c1noc(C)c1[N+](=O)[O-])OC(C)C2 (stereo not given)
[20]
  EC50: > 99 µM (inactive)
[21]
  EC50: > 99 µM (inactive)
Beta-lactamase [22]
  IC50: > 59.6 µM (inactive)
Beta-lactamase [23]
  IC50: > 59.6 µM (inactive)

## O=[N+]([O-])/C=C/c1ccc2c(ccn2Cc2ccccc2)c1
[24]
  IC50: 2.98 µM (active)
[25]
  IC50: 1.74 µM (active)
Streptokinase A
  EC50: 6.15 µM (active)
[26]
  EC50: 5.7 µM (active)
Beta Lactamase
  IC50: 30 µM (inactive)
[27]
  CC50: 42 µM (active)
[28]
  IC50: 23.3 µM (active)
[29]
  EC50: 2.91 µM (active)
INS1
  AC50: 6.82 µM (active)
[30]
  AC50: 3.42 µM (active)
Streptococcus
  EC50: 11.6 µM (active)

— ChEMBL document CHEMBL1201862, “PubChem BioAssay data set” (2004)
